From patent US20080108676A1, “Benzothiazolecarboxamides” (New Benzothiazolecarboxamides, priority 2004, published 2008)

Target: T1, hVR1 (Homo sapiens, UniProt Q8NER1)
T1 construct: expressed in transfected cells
Assay: hVR1 FLIPR (Fluorometric Image Plate Reader) screening assay, IC50 determination
Type: cell-based
Conditions: agonist capsaicin, inhibition of increase in intracellular calcium
Experimental: 1. hVR1 FLIPR (Fluorometric Image Plate Reader) screening assay
Transfected CHO cells, stably expessing hVR1 (15,000 cells/well) are seeded in 50 ul media in a black clear bottom 384 plate (Greiner) and grown in a humidified incubator (37° C., 2% CO2), 24-30 hours prior to experiment.
Subsequently, the media is removed from the cell plate by inversion and 2 μM Fluo-4 is added using a multidrop (Labsystems). Following the 40 minutes dye incubation in the dark at 37° C. and 2% CO2, the extracellular dye present is washed away using an EMBLA (Scatron), leaving the cells in 40 ul of assay buffer (1×HBSS, 10 mM D-Glucose, 1 mM CaCl2, 10 mM HEPES, 10×7.5% NaHCO3 and 2.5 mM Probenecid).
FLIPR Assay—IC50 Determination Protocol
For IC50 determinations the fluorescence is read using FLIPR filter 1 (em […]). A cellular baseline recording is taken for 30 seconds, followed by a 20 μl addition of 10, titrated half-log concentrations of the test compound, yielding cellular concentration ranging from 3 μM to 0.1 nM. Data is collected every 2 seconds for a further 5 minutes prior to the addition of a VR1 agonist solution: either 50 nM solution of capsaicin or MES (2-[N-morpholino]ethanesulfonic acid) buffer (pH 5.2), by the FLIPR pipettor. The FLIPR continues to collect data for a further 4 minutes. […] This consequently leading to a reduction in fluorescence signal and providing a reduced fluorescence reading, compared with no compound, buffer controls. Data is exported by the FLIPR program as a sum of fluorescence calculated under the curve upon the addition of capsaicin. […]
FLIPR (Fluorometric Image Plate Reader) screening assay with HEK T-REX hVR1. […]
For IC50 determinations the fluorescence is read using FLIPR filter 1 (em […]). […] This consequently leading to a reduction in fluorescence signal and providing a reduced fluorescence reading, compared with no compound, buffer controls. Data is exported by the FLIPR program as a sum of fluorescence calculated under the curie upon the addition of capsaicin. […]

T1 sequence (Q8NER1 whole entry): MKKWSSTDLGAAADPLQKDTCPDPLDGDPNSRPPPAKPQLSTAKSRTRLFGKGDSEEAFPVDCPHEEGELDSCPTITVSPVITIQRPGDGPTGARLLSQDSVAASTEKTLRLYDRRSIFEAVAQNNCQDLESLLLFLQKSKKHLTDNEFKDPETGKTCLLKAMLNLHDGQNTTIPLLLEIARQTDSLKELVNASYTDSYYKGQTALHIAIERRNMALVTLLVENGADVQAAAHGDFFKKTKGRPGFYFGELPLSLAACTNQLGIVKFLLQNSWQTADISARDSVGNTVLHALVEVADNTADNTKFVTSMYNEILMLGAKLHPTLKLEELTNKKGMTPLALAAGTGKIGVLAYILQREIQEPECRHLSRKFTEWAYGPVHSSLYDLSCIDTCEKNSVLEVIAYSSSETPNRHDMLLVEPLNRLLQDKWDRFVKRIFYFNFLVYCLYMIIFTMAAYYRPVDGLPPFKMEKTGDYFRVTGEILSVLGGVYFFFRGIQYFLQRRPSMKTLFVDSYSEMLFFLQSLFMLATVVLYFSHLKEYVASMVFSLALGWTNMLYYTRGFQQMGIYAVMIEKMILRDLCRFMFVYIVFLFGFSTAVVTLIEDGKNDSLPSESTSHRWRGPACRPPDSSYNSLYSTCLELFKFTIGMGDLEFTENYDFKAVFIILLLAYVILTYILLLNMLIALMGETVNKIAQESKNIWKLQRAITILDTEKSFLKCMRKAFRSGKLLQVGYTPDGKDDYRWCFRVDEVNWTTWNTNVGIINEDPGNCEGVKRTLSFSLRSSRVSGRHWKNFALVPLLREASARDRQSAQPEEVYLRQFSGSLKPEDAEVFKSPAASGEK

Structure (SMILES) | IC50 [nM]
Cc1nc2cc(C(=O)Nc3ccc(C(C)(C)C)cc3)ccc2s1 [Example 1, N-4-tert-butylphenyl-2-methyl-1,3-benzothiazole-5-carboxamide] | 226
Cc1nc2cc(C(=O)NCc3ccc(C(F)(F)F)cc3)ccc2s1 [Example 7, 2-methyl-N-[4-trifluoromethylbenzyl]-1,3-benzothiazole-5 carboxamide] | 2780
Cc1nc2cc(C(=O)NCc3cccc(C(F)(F)F)c3)ccc2s1 [Example 8, 2-methyl-N-[3-trifluoromethylbenzyl]-1,3-benzothiazole-5-carboxamide] | 1660
